# Where two headings read alike, the source gives them in different places.
# What was measured:
# [1] = system: hydrochloric acid-induced micturition model rats; conditions: […] (w/v %), 0.2 mL single intravesical administration two days after HCl, cystometry seven days after HCl, vs. control (saline); for Intercontraction interval: FIG. 2
# Method: Chondroitin sulfate derivatives prepared in compliance with the methods of Examples 3, 4 and 5 were dissolved in phosphate-buffered saline to prepare the test substances indicated below.
# (§1) Two days after continuous instillation of hydrochloric acid, 0.2 mL of each test substance were administered transurethrally using a catheter (PE50) and retained in the bladder for 30 minutes under anesthesia.
# Intercontraction interval and single voided volume were measured after changes in intravesical pressure had stabilized.
# [2] = system: hydrochloric acid-induced micturition model rats; test: Test Example B1: urinary function, rat hydrochloric acid-induced micturition model (steroid comparison); conditions: […] (w/v %), 0.2 mL single intravesical administration two days after HCl, cystometry seven days after HCl, vs. control (saline); for Intercontraction interval: FIG. 1
# [3] = system: hydrochloric acid-induced micturition model rats; test: Test Example B3: urinary function, rat hydrochloric acid-induced micturition model (comparison of conjugates and mixture); assay type: in vivo; conditions: 3% (w/v %) conjugate or mixture of 3% CS+[…] BTM, 0.2 mL single intravesical administration, cystometry seven days after HCl, vs. control
# Method: A chondroitin sulfate derivative prepared in compliance with the method of Example 2 was dissolved in phosphate-buffered saline to prepare the test substances indicated below.
# as §1
Substance,Single voided volume [1],Intercontraction interval [1],Single voided volume [2],Intercontraction interval [2],Single voided volume [3],Intercontraction interval ([3]; FIG. 4)
CS introduced with 21-Glycyl-Triamcinolone Acetonide [CS-Gly-TA],significant increase in single voided volume,significantly increased intercontraction interval,,,,
CS introduced with 21-Isoleucyl-Triamcinolone Acetonide [CS-Ile-TA],significant increase in single voided volume,significantly increased intercontraction interval,,,,
CS introduced with 21-β-Alanyl-Betamethasone [CS-βAla-BTM],,,significant increase in single voided volume,significantly increased intercontraction interval,significant increase in single voided volume,significantly increased intercontraction interval
CS introduced with 21-β-Alanyl-Prednisolone [CS-βAla-PRED],,,significant increase in single voided volume,significantly increased intercontraction interval,,
CS introduced with 21-β-Alanyl-Triamcinolone Acetonide [CS-βAla-TA],significant increase in single voided volume,significantly increased intercontraction interval,significant increase in single voided volume,significantly increased intercontraction interval,,

# — patent US10953037B2, “Chondroitin sulfate derivative and agent for treating bladder diseases” (priority 2015, dated 2021)
